In patent US20240115557A1, “INHIBITORS OF RNA-GUIDED NUCLEASES AND USES THEREOF” (The Brigham and Women's Hospital, Inc., priority 2022, published 2024):

How the values were obtained:
SpCas9 [1] = target: T1, SpCas9 (Streptococcus pyogenes serotype M1, UniProt Q99ZW2); test: Strand displacement assay (SDA) / cumulative activity assay (CAA), SpCas9 primary screen; type: biochemical; conditions: Primary Screen (150 min); for Normalized Z score 1: replicate 1; for Normalized Z score 2: replicate 2
T1 sequence (Q99ZW2 whole entry): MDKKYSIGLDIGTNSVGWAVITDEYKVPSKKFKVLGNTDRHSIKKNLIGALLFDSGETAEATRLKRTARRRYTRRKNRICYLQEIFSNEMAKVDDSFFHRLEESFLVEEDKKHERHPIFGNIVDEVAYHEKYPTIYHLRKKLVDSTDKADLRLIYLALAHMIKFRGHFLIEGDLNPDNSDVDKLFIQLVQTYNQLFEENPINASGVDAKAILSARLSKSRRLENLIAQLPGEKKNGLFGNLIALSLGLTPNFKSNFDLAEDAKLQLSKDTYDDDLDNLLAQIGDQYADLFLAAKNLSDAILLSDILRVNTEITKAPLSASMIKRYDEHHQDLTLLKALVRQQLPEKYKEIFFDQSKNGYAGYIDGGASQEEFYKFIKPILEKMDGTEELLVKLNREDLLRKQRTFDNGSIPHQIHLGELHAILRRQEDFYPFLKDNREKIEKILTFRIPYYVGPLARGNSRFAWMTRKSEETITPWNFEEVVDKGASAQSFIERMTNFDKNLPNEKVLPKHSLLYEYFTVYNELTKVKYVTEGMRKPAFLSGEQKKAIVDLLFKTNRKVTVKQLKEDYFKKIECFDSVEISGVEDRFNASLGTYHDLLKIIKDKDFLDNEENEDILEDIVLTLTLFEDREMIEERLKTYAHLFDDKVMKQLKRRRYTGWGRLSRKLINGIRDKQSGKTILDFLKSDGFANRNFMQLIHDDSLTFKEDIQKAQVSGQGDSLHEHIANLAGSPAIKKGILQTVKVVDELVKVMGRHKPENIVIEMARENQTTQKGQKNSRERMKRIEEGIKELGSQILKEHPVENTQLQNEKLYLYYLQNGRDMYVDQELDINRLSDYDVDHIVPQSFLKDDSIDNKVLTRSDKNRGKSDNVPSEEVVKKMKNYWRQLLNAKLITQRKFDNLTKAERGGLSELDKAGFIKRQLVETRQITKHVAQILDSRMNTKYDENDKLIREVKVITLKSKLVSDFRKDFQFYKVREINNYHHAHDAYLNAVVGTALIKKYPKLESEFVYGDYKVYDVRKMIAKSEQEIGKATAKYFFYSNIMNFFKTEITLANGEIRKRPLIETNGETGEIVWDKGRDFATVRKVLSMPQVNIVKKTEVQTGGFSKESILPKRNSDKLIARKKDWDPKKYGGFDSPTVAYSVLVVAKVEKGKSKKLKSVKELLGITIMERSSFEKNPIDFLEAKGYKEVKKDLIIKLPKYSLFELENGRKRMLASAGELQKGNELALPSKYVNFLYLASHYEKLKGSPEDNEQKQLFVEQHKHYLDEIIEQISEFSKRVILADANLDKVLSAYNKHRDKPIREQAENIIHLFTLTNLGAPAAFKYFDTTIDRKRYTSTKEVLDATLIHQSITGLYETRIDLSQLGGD
Protocol: Screening of inhibitors was via a high throughput pipeline, as depicted in FIG. 29. The first screening is via a strand displacement assay (SDA) for detecting nuclease activity (FIG. 27A, 28A). The Cpf1/Cas12 protein/DNA complex has a different structure from Cas9 and requires optimization of the potential fluorophore attachment sites (Yamano, T et al., Cell, 2016). (FIG. 28A). Next screened compounds are evaluated in an eGFP cell assay, and for eGFP dose. Those compounds are further narrowed via a HiBiT assay and finally evaluated in the surveyor assay. SAR evaluations are performed to arrive at lead compounds for further evaluations and variations. General methodology for the assays is as described in at [0253]-[0301] of U.S. Patent Application 62/831,143 filed Apr. 8, 2019, incorporated herein by reference.
The 3′ end of the displacing single-stranded DNA was labeled with a quencher. Following nuclease cleavage of the substrate, the 3′-labeled quenching DNA strand (present in excess) could outcompete the weakly held 3′ strand to anneal to the 5′ strand. The resulting FRET fluorescence quenching provides an optical readout for nuclease activity (FIG. 62A).
Typically, SpCas9: gRNA (1:1.2 ratio) RNP was pre-formed at 1 μM in Cas9 assay buffer (20 mM Tris-HCl, pH=7.5, 100 mM KCl, 5 mM MgCl2) for 5 min at 4° C. before diluting to 10 nM in Cas9 assay buffer (2× final concentration). 25 μL of the Cas9 2× stock was manually dispensed to a black 384-well plate (Corning 3575) using electronic pipette. […] Following this, pre-annealed Alexa-Fluor 647 labeled substrate and quencher were also diluted to 1 nM and 5 nM in Cas9 assay buffer, respectively (2× stock solution). Next, 25 μL of the substrate/quencher solution was added manually to each well of the Cas9-containing 384-well plates using an electronic pipette and was incubated at 37° C. for 2.5 h. Fluorescent signals were read with the microplate reader set to read Alexa-Fluor 647 fluorescence. Assay was performed similarly with SaCas9 and FnCas12a using the respective enzyme, gRNA, substrate, and quencher oligos. […]

SpCas9 [2] = target: T1, SpCas9; test: eGFP disruption assay, SpCas9, U2OS.eGFP.PEST cells; type: cell-based; conditions: for Normalized Z rep1 / Z score Rep1: replicate 1; for SpCas9 eGFP disruption Rep1: replicate 1, raw readout; for Normalized Z rep2 / Z socre Rep2: replicate 2; for SpCas9 eGFP disruption Rep2: replicate 2, raw readout
From the text: In some embodiments, the secondary assay may be an EGFP disruption assay. In such assay, a quantitative human cell-based reporter assay that enables rapid quantitation of targeted nuclease activities is used to characterize off-target cleavage of Cas9-based RNA guided endonucleases. In this assay, the activities of nucleases targeted to a single integrated EGFP reporter gene can be quantified by assessing loss of fluorescence signal in human U2OS.EGFP cells caused by inactivating frameshift insertion/deletion (indel) mutations introduced by error prone non-homologous end-joining (NHEJ) repair of nuclease-induced double-stranded breaks (DSBs).
In one protocol, U2OS.EGFP cells harboring a single integrated copy of an EGFP-PEST fusion gene are cultured (see e.g., Reyon et al., Nat Biotech 30, 460-465 (2012), which is herein incorporated by reference in its entirety). For transfections, 200,000 cells are Nucleofected with gRNA expression plasmid and pJDS246 together with 30 ng of a Td-tomato-encoding plasmid using the SE Cell Line 4D-Nucleofector™ X Kit (Lonza) according to the manufacturer's protocol. Cells are analyzed 2 days post-transfection using a BD LSRII flow cytometer. Transfections for optimizing gRNA/Cas9 plasmid concentration are performed in triplicate and all other transfections are performed in duplicate. PCR amplification is used for sequence verification of endogenous human genomic sites. PCR reactions are performed using Phusion Hot Start II high-fidelity DNA polymerase (NEB). Loci are amplified using touchdown PCR (98° C., 10 s; 72-62° C., −1° C./cycle, 15s; 72° C., 30 s] 10 cycles, [98° C., 10s; 62° C., 15s; 72° C., 30 s] 25 cycles). Alternatively, PCR for other targets is performed with 35 cycles at a constant annealing temperature of 68° C. or 72° C., and 3% DMSO or IM betaine, if necessary. PCR products are analyzed on a QIAXCEL capillary electrophoresis system to verify both size and purity. Validated products are treated with ExoSap-IT (Affymetrix) and sequenced by the Sanger method (MGH DNA Sequencing Core) to verify each target site.
Primary and secondary screening. The primary screen assayed a selection of unique chemical scaffolds derived from commercially available compounds and known bioactive molecular libraries (Table 7). Auto-fluorescent compounds were removed by a counter screen. Overall, the CAA was used to assay 122,409 small molecules with over 2,500 unique chemical scaffolds (FIG. 64F, Table 7). Of these compounds, 547 were selected as hits (Z score >3 in both replicates) for testing in orthogonal cell-based secondary assays. Hits were tested in duplicate in an eGFP disruption assay, wherein U2OS.eGFP.PEST cells^33 transfected with SpCas9 plasmid and eGFP-targeting gRNA plasmid were incubated with 20 μM of the compounds. In this assay, any compound that inhibited SpCas9 would rescue the loss of eGFP fluorescence. Here, toxic and auto-fluorescent compounds with a high GFP signal in cells were removed as false positives. […] Next, Applicants tested the 15 compounds in a luminescence-based gain-of-signal HiBiT knock-in assay, which involves SpCas9-mediated homology-directed tagging of GAPDH with a short peptide that luminesces upon complementation with a subunit derived from nanoluciferase.^34 Complementarily, the eGFP-disruption assay is fluorescence-based and involves error-prone DNA repair. As a counter-screen to remove false positives caused by cell death (viability <80%), the cell viability was measured after incubation.
For SAR studies and dose-response studies, 300,000 U2OS.eGFP.PEST cells were nucleofected with 300 ng of SpCas9 plasmid (Addgene #43861) and 30 ng of eGFP-targeting gRNA plasmid (Addgene #47511)^33 using SE Cell Line 4D-Nucleofector X Kit (Lonza) following the pulse program of DN-100. For RNP-based genome editing, 10 pmol of SpCas9 (GenScript #Z03385) and 12 pmol of gRNA were mixed and incubated for 5 min. […]

Structure (SMILES)	Average Normalized Z score (SpCas9 [1])	avg z score primary (SpCas9 [1])	Normalized Z score 1 (SpCas9 [1])	Normalized Z score 2 (SpCas9 [1])	Normalized Z rep1 (SpCas9 [2])	Z score Rep1 (SpCas9 [2])	SpCas9 eGFP disruption Rep1 (SpCas9 [2])	Normalized Z rep2 (SpCas9 [2])	Z socre Rep2 (SpCas9 [2])	SpCas9 eGFP disruption Rep2 (SpCas9 [2])	Average Normalized Z score (SpCas9 [1]; average of replicates)
CCn1c(=O)c(C(=O)Nc2nccc(C)n2)c(O)c2ccccc21 [Compound G650-0193]	0.21	11.65	0.19	0.23	−0.05	−0.45	63.431	−0.43	−6.43	55.676	
Cn1nc(-c2ccccc2F)c2cc(C(=O)Oc3ccc4cnccc4c3)sc21 [Compound G784-0099]	0.07	7.48	0.06	0.09	−0.35	−3.62	69.21	0.01	0.21	76.066	
O=C(Nc1nc(-c2ccccc2)c(C(=O)c2ccccc2)s1)c1ccc2c(c1)OCCO2 [Compound G786-0335]	0.04	4.14	0.04	0.04	−0.08	−0.79	74.347	0.09	2.13	77.667	
COc1ccc(-n2c(N(C(C)=O)C(C)=O)c(C#N)c3nc4ccccc4nc32)cc1 [Compound T0503-6223]		14.21	0.16	0.16							0.16
O=C(N/N=C/c1ccc(O)c(O)c1O)c1cccc(S(=O)(=O)Nc2ccccc2Cl)c1 [Compound T0506-5702]		4.48	0.07	0.07							0.07
Cc1ccc(C(=O)n2ncn(C)c2=S)cc1 [Compound T0510-3476]		28.56	0.39	0.42							0.41
O=C(CCC(=O)c1ccc(F)cc1)OC1CCOC1=O (centres unmarked) [Compound T0512-8635]		4.05	0.04	0.04							0.04
O=C(CSc1nnc2ccccn12)Nc1cc(C(=O)O)cc(C(=O)O)c1 [Compound T0513-0201]		11.30	0.10	0.13							0.11
CCOC(=O)C1CCCN(Cn2nnn(-c3ccc(OC)cc3)c2=S)C1 (centres unmarked) [Compound T0513-0218]		3.45	0.04	0.03							0.04
O=C(Nc1nnc(C2CC2)s1)c1ccc2ncsc2c1 [Compound T0514-1693]		5.62	0.07	0.07							0.07
O=C(O)c1cccc(NCC2SC(=S)NC2=O)c1 (centres unmarked) [Compound T0514-3358]		4.79	0.32	0.27							0.30
Oc1c(C(c2cccs2)N2CCCCC2)ccc2cccnc12 (centres unmarked) [Compound T0515-1927]		10.34	0.70	0.67							0.68
O=C(COC(=O)c1cc(O)c(O)c(O)c1)NC1CCCc2ccccc21 (centres unmarked) [Compound T0515-9025]		4.00	0.26	0.23							0.25
Cc1ccc(Cl)cc1NC(=O)C1=NCCN1 [Compound T0519-9012]		5.06	0.08	0.12							0.10
Cc1sc2nc3n(c(=O)c2c1-c1ccccc1)CCC3 [Compound T0520-0462]		4.18	0.04	0.05							0.04
O=C(O)CSc1nnc(NC2CCCCC2)s1 [Compound T5211003]		4.50	0.05	0.05							0.05
NC(=S)c1ccccn1 [Compound T5211106]		3.58	0.04	0.04							0.04
CCc1ccc(NC(=O)C(C#N)=Cc2cc(C#N)n(C)c2C)cc1 [Compound T5229649]		4.90	0.06	0.08							0.07
N=C1N=CC(=NNc2cc(C(=O)O)ccc2Cl)S1 [Compound T5253378]		4.20	0.08	0.07							0.07
CCC(CC)NC(=O)c1ccc2ncsc2c1 [Compound T5324509]		7.80	0.12	0.09							0.10
Cn1cccc1/C=C\C(=O)O [Compound T5365031]		4.17	0.27	0.28							0.28
O=C1NC(=S)C(=C2CCCC2)S1 [Compound T5441809]		22.96	0.27	0.24							0.26
O=C(O)C(S)=C/C=C\c1ccccc1 [Compound T5441826]		4.20	0.03	0.06							0.05
